Entries after “also recorded” stand apart in the source; their conditions may differ.
Experiments:
[1] = tested on: SCC47 cells; test: Cell growth in culture, SCC47 cells; assay type: cell-based, human; details: NB-DNJ
[2] = tested on: SCC1 cells; test: Cell growth in culture, SCC1 cells; assay type: cell-based, human; details: for growth of FANCD2sh-treated SCC1 cells: NSC23766: 48 hours culture
[3] = tested on: SCC47 cells; test: Matrigel-coated transwell invasion assay, SCC47 cells; assay type: cell-based, human; details: 100 uM NB-DNJ, 48 hrs; NTsh, FANCD2sh, FANCJsh
Procedure: (§1) FIGS. 23A and B show a pathway loss promotes invasion of squamous tumor cells. Indicated cells were treated with the indicated shRNA vectors and then plated in Matrigel-coated transwells. After 22 hours, invasive cells were quantified.
(§2) FIGS. 27I and J show NTsh-, FANCD2sh- and FANCJsh-treated SCC1 and SCC47 cells were cultured for 48 hrs in 100 uM NB-DNJ.
GM3 is the precursor of complex gangliosides (FIG. 27E), a key component of cell membranes, and enriched in lipid rafts (LRs). GM3 and its derivative GM1 localize to microdomains in apical epithelial membranes (68) and GM3 depletion was reported to blocked wound healing in diabetic mice (69). Further, GM3 was elevated in head and neck tumors (compared to adjacent normal tissue) (70) and in serum of HNSCC patients, and was predictive of tumor size and relapse (71). On the other hand, links between GM3 levels and FA have not yet been reported. Targeted analyses by UPLC-MS/MS in normal cutaneous (NIKS) and normal oral (NOKS) keratinocytes, as well as in UM-SCC1 cells verified GM3 regulation across the major carbohydrate component lengths (i.e., from d34:1 to d44:2) (FIG. 27F-H). […] To assess the functional significance of ganglioside accumulation in FA cells, the effect of a ganglioside synthesis inhibitor N-butyldeoxynojirimycin (NB-DNJ)72 was measured on invasion driven by FA pathway loss. […]

[4] = tested on: SCC1 cells; test: Matrigel-coated transwell invasion assay, SCC1 cells; assay type: cell-based, human; details: for invasion of FANCD2sh-treated SCC1 cells: Matrigel-coated transwells, 22 hours
Procedure: as §1
After 22 hours, invasive cells were quantified. Representative images are shown. Experiments were carried out in duplicate, and standard deviation calculated.
FA pathway loss promoted motility and invasion. To assess motility and invasiveness of FA-deficient cells, the Matrigel cell invasion assay was used. […] To rule out off-target effects of the lentivirus, an shRNA-resistant EGFP-FANCD2 construct was introduced. The EGFP-FANCD2 fusion protein was expressed in GFP+ cells (but not GFP− cells), and was sufficient to block invasion of FANCD2sh-treated SCC1 cells (FIG. 23B). Similarly, FANCA and FANCJ knockdown stimulated invasion in SCC1 cells (FIG. 23C). […] Gains in cellular motility were also observed for normal oral keratinocytes (NOKS): 1.3% of NTsh normal oral keratinocytes (NOKS) cells plated were able to migrate through matrigel. This invasion frequency doubled upon FANCD2 knockdown, highlighting potential relevance for FA loss for the motility of normal cells (data not shown).

[5] = tested on: GM3; test: GM3 levels by targeted MS in NB-DNJ treated cells; assay type: cell-based, human; details: 100 uM NB-DNJ, 48 hrs; NTsh-, FANCD2sh- and FANCJsh-treated SCC1 and SCC47 cells
Procedure: as §2
GM3 is the precursor of complex gangliosides (FIG. 27E), a key component of cell membranes, and enriched in lipid rafts (LRs). GM3 and its derivative GM1 localize to microdomains in apical epithelial membranes (68) and GM3 depletion was reported to blocked wound healing in diabetic mice (69). Further, GM3 was elevated in head and neck tumors (compared to adjacent normal tissue) (70) and in serum of HNSCC patients, and was predictive of tumor size and relapse (71). On the other hand, links between GM3 levels and FA have not yet been reported. Targeted analyses by UPLC-MS/MS in normal cutaneous (NIKS) and normal oral (NOKS) keratinocytes, as well as in UM-SCC1 cells verified GM3 regulation across the major carbohydrate component lengths (i.e., from d34:1 to d44:2) (FIG. 27F-H). […] To assess the functional significance of ganglioside accumulation in FA cells, the effect of a ganglioside synthesis inhibitor N-butyldeoxynojirimycin (NB-DNJ)72 was measured on invasion driven by FA pathway loss. NTsh-, FANCD2sh- and FANCJsh-treated SCC1 and SCC47 cells were exposed to NB-DNJ (or vehicle), and subjected to Matrigel invasion assays (FIG. 23).

[6] = tested on: SCC1 cells; test: Phalloidin staining, quantification of intercellular projections in SCC1 cells; assay type: cell-based, human; details: FANCD2sh- and FANCJsh SCC1 cells, phalloidin stain
Description: (§3) Percentages of cells in G2/M are indicated. […] Images were taken at the same magnification and exposure. […] Errors bars represent standard deviation; ** p<0.001; *** p<0.0001 (ANOVA).

[7] = tested on: Rac1; test: Rac1-GTP pulldown assay in SCC1 cells; assay type: cell-based, human
Description: Members of the small GTPase Rho, Rac and CDC42 family of signaling molecules were key players in normal and transformed cell morphology, adhesion, motility, and invasion (46). […] Because Rac1 activation is reported to produce intercellular projections (47-48) similar to the ones noted in FA-deficient cells (FIG. 22E), the inventors carried out Rac1-GTP pull-downs to determine whether Rac1 is activated by FA pathway loss; FANCJsh SCC1 cells were used, since pDNA-PK activation in these cells was robust (FIG. 24A). […] To examine the requirement for Rac1 in cytoskeletal re-organization and invasion of FA-deficient cells, the specific Rac1 small molecule inhibitor NSC23766 was used (49-50). […] Thus, FA pathway loss leads to downstream activation of pDNA-PK and Rac1, and both are required for cytoskeletal rearrangements and invasion.

[8] = biological target: T1, pDNA-PKcs (Homo sapiens, UniProt P78527); test: Western blot of pDNA-PKcs in SCC1 cells after bleomycin pulse; assay type: cell-based; details: 10 uM NU7026; 30-minute bleomycin pulse; FANCD2sh-, FANCJsh- and control (NTsh) SCC1 cells
T1 construct: Western blot analysis of NTsh-, FANCD2sh- and FANCJsh-treated SCC1 cells that were subjected to a 30-minute pulse of bleomycin; endogenous in cells; host or cells: UM-SCC1 (SCC1) HNSCC cells carrying NTsh, FANCD2sh or FANCJsh lentiviral shRNA
Description: DNA-PK/Rac1 signaling occurred in response to FA pathway loss and was required for cytoskeletal re-organization and invasion. […] These defects are accompanied, under some circumstances, by a corresponding increase in the activity of error-prone non-homologous end joining (NHEJ) pathway components (27-28). Repair by NHEJ requires activation of the catalytic subunit of DNA-dependent protein kinase (DNA-PKcs) and subsequent autophosphorylation on serine […] (pDNA-PKcs). The inventors first determined whether DNA-PKcs signaling was activated and involved in FA-associated invasion. FANCD2sh- and FANCJsh-treatment of SCC1 cells stimulated pDNA-PKcs.

[9] = tested on: FA-deficient SCC; test: Invasion of FA-deficient SCC, rescue by supplementation; assay type: cell-based
[10] = tested on: SCC1 cells; test: Flow cytometry-based cell-cycle analysis after melphalan, SCC1 cells; parameters: species or system human; details: FANCD2-deficient SCC1 cells compared to NTsh
Description: as §3
FA pathway loss leads to cytoskeletal and membrane aberrations in HNSCC cells. A significant proportion of sporadic HNSCCs harbor somatic mutations in FA and FA-related genes (33). To test for biological effects of FA pathway loss, knockdown models of HNSCC were created using published lentiviral shRNA vectors (15, 41). First, the HPV-negative (UM-)SCC1 cell line was knocked down for FANCA, FANCD2, and FANCJ. Western blot analyses verified specific and efficient FA protein depletion (FIG. 22A). To verify that FANCD2 depletion induced classical FA phenotypes, DNA crosslinker sensitivity was quantified. […] This was similar to FA lymphoblasts and fibroblasts that also respond to melphalan with G2/M cell-cycle arrest (42-43). FANCA- and FANCJ-deficient SCC1 cells responded similarly, as did UMSCC6 and UMSCC47 HNSCC cell lines depleted for FA proteins (data not shown). Thus, FA knockdown in HPV-positive and -negative […] cells induced the classic FA DNA-crosslinker sensitivity phenotype.

CCCCN1C[C@H](O)[C@@H](O)[C@H](O)[C@H]1CO [NB-DNJ, N-butyldeoxynojirimycin]
growth of SCC47 cells [1]: did not affect the growth | growth of SCC1 cells ([2]; NB-DNJ): did not affect the growth | invasion driven by FA loss, SCC47 cells [3]: selectively inhibited invasion driven by FA loss | invasion driven by FA loss, SCC1 cells ([4]; 100 uM NB-DNJ, 48 hrs, NTsh, FANCD2sh, FANCJsh): selectively inhibited invasion driven by FA loss | GM3 levels [5]: reduced GM3 levels; also recorded: successfully repressed GM3 levels

CCN(CC)CCCC(C)Nc1nc(C)cc(Nc2ccc3nc(C)cc(N)c3c2)n1 (centres unmarked) [NSC23766]
growth of FANCD2sh-treated SCC1 cells [2]: did not appear to affect growth | invasion of FANCD2sh-treated SCC1 cells [4]: suppressed cell invasion | invasion of control cells ([4]; NTsh control SCC1 cells): did affect invasion of control cells | number of long intercellular projections [6]: reduced the number of long intercellular projections

O=c1cc(N2CCOCC2)oc2c1ccc1ccccc12 [NU7026]
active Rac1 (Rac1-GTP) in FA-deficient cells ([7]; FANCJsh SCC1 cells): significantly lowered active Rac1 | Rac1 activity in control cells ([7]; NTsh control SCC1 cells): did not affect Rac1 activity | pDNA-PKcs level (Western blot) [8]: undetectable pDNA-PKcs | growth of FANCD2sh-treated SCC1 cells [2]: did not appear to affect growth | invasion of FANCD2sh-treated SCC1 cells [4]: suppressed invasion

CC(C)CCC[C@@H](C)[C@H]1CC[C@H]2[C@@H]3CC=C4C[C@@H](O)CC[C@]4(C)[C@H]3CC[C@]12C [cholesterol]
invasion of FA-deficient SCC [9]: rescued

Oc1ccc([C@H]2COc3cc(O)ccc3C2)cc1 [equol]
invasion of FA-deficient SCC [9]: rescued

N[C@@H](Cc1ccc(N(CCCl)CCCl)cc1)C(=O)O [melphalan]
proportion of cells in G2/M after melphalan [10]: increased proportion of cells in G2/M

O=c1c(O)c(-c2ccc(O)c(O)c2)oc2cc(O)cc(O)c12 [quercetin]
invasion of FA-deficient SCC [9]: rescued

NeuACα2-3Galβ1-4Glcβ1-1ceramide [GM3]
invasion of SCC1 cells with GM3 in cell media ([4]; GM3 50 uM): doubled the invasion | SCC1 invasion on GM3 addition to culture media ([4]; particularly in FA-proficient cells, data not shown): stimulated SCC1 invasion

— US10857211B2, “Genomic instability markers in Fanconi anemia” (Children's Hospital Medical Center, priority 2014, dated 2020)
